Data taken from US20110288052A1, “NOVEL COMPOUNDS, PHARMACEUTICAL COMPOSITIONS CONTAINING SAME, AND METHODS OF USE FOR SAME” (priority 2008, published 2011).
Converted amounts (≈) assume the structure as drawn.

What was measured:
viral HIV protease = viral HIV protease (Human immunodeficiency virus type 1 group M subtype B, UniProt P04585); conditions: cited from earlier work
Weight loss screen = type: in vivo, Balb/C mice; conditions: 60 mg/ml (so in the source), day 1
Procedure: Weight Loss Screen Balb/C mice (Jackson Labs) are utilized for the initial weight loss screening. Animals are housed in temperature and 12 hour day/night cycle rooms and fed mouse chow and water ad lib. Three mice are utilized for each compound tested with vehicle controls in triplicate per experiment. For the experiments, mice are housed separately for each compound tested three mice to a cage. Compounds are diluted in DMSO at 10 mg/ml and mice are injected intraperitoneally with 60 mg/kg in approximately 100 μl of DMSO or with vehicle alone. Mice are observed and weighed daily; average weights and standard errors are computed with Excel (Microsoft). The experiment continues until treated animals reach their pretreatment weights.

HCT116 cells = assay: XTT cytotoxicity assay, HCT116 (H); type: cell-based; conditions: Homo sapiens, HCT-116
Procedure: (§1) XTT Cytotoxicity Assay The XTT assay is a non-radioactive alternative for the [^51Cr] release cytotoxicity assay. XTT is a tetrazolium salt that is reduced to a formazan dye only by metabolically active, viable cells. The reduction of XTT is measured spectrophotometrically as OD490-OD650. To measure the cytotoxicity of specific compounds against cancer cells, 9×10^3 MCF-7 human breast cancer cells (shown in the tables as “(M)”), obtained from the American Type Culture Collection are plated per well in 96 well plates in DMEM medium with 10% fetal bovine serum, insulin, penicillin, and streptomycin. Following overnight culture at 37° C. and 5% CO2, the compounds to be tested, dissolved in DMSO, are added to the wells in 1 μl volume at the following concentrations: 80, 40, 20, 10, 5, 2.5, 1.25, and 0.625 μg/ml in triplicate. Additional concentrations are tested if required. 1 μl of DMSO is added to triplicate wells are the vehicle control. C75 is run at 40, 20, […], and 5 μg/ml in triplicate as positive controls. After 72 hours of incubation, cells are incubated for 4 hours with the XTT reagent as per manufacturer's instructions (Cell Proliferation Kit II (XTT) Roche). Plates are read at OD490 and OD650 on a Molecular Devices SpectraMax Plus Spectrophotometer. Three wells containing the XTT reagent without cells serve as the plate blank. XTT data are reported as OD490-OD650. Averages and standard error of the mean are computed using SOFTmax Pro software (Molecular Dynamics). The IC50 for the compounds is defined as the concentration of drug leading to a 50% reduction in OD490-OD650 compared to controls. The OD490-OD650 are computed by the SOFTmax PRO software (Molecular Devices) for each compound concentration. IC50 is calculated by linear regression, plotting the FAS activity as percent of control versus drug concentrations. Linear regression, best-fit line, r^2, and 95% confidence intervals are determined using Prism Version 3.0 (Graph Pad Software). The test was also run against OVCAR3 cells (“OV”), and HCT116 cells (“H”).

[1] = Solubility problem noted during the assays; type: physicochemical; conditions: noted under the 14C column, unit inferred; read-out: Sol Prob (solubility problem at concentration)
OVCAR3 cells = assay: XTT cytotoxicity assay, OVCAR3 (OV); type: cell-based; conditions: Homo sapiens, OVCAR-3, unit given as ml
Procedure: as §1

[2] = tested on: MCF-7 human breast cancer cells; assay: XTT cytotoxicity assay, MCF-7 (M); type: cell-based; conditions: MCF7, MCF-7, 72 hours
Procedure: XTT Cytotoxicity Assay The XTT assay is a non-radioactive alternative for the [^51Cr] release cytotoxicity assay. XTT is a tetrazolium salt that is reduced to a formazan dye only by metabolically active, viable cells. The reduction of XTT is measured spectrophotometrically as OD490-OD650. To measure the cytotoxicity of specific compounds against cancer cells, 9×10^3 MCF-7 human breast cancer cells (shown in the tables as “(M)”), obtained from the American Type Culture Collection are plated per well in 96 well plates in DMEM medium with 10% fetal bovine serum, insulin, penicillin, and streptomycin. Following overnight culture at 37° C. and 5% CO2, the compounds to be tested, dissolved in DMSO, are added to the wells in 1 μl volume at the following concentrations: 80, 40, 20, 10, 5, 2.5, 1.25, and 0.625 μg/ml in triplicate. Additional concentrations are tested if required. 1 μl of DMSO is added to triplicate wells are the vehicle control. C75 is run at 40, 20, […], and 5 μg/ml in triplicate as positive controls. After 72 hours of incubation, cells are incubated for 4 hours with the XTT reagent as per manufacturer's instructions (Cell Proliferation Kit II (XTT) Roche). Plates are read at OD490 and OD650 on a Molecular Devices SpectraMax Plus Spectrophotometer. Three wells containing the XTT reagent without cells serve as the plate blank. XTT data are reported as OD490-OD650. Averages and standard error of the mean are computed using SOFTmax Pro software (Molecular Dynamics). The IC50 for the compounds is defined as the concentration of drug leading to a 50% reduction in OD490-OD650 compared to controls. The OD490-OD650 are computed by the SOFTmax PRO software (Molecular Devices) for each compound concentration. IC50 is calculated by linear regression, plotting the FAS activity as percent of control versus drug concentrations. Linear regression, best-fit line, r^2, and 95% confidence intervals are determined using Prism Version 3.0 (Graph Pad Software).

[3] = tested on: MCF-7 human breast cancer cells (fatty acid oxidation pathway activity); assay: Fatty acid oxidation ([14C]palmitate to acid soluble products); type: cell-based
Procedure: Measurement of Fatty Acid Oxidation and Determination of SC150 of Compounds This assay measures the degradation of [^14C]palmitate into acid soluble products and is a measure of fatty acid oxidation pathway activity in vitro. It is utilized to measure fatty acid oxidation in vitro. MCF-7 human breast cancer cells cultured as above, are plated at 2.5×10^5 cells per well in 24-well plates. Following overnight incubation, the compounds to be tested, solubilized in DMSO, are added at […], 0.39, 1.56, 6.25, 25, and 100 μg/ml in triplicate, with lower concentrations tested if necessary. DMSO is added to triplicate wells for a vehicle control. C75 is run at 5 and 10 μg/ml in triplicate as positive controls. After 1 hour of incubation, medium is removed 100 uM of [^14C] palmitate in cyclodextran and 200 uM carnitine in serum free medium (250 μl volume) is added to each well. After 30 minutes of additional incubation, the reaction is stopped by addition of 2.6N HClO4. Contents of each well are transferred to 1.5 ml Eppendorf tubes and 4N KOH is added. The tubes are incubated for 30 minutes at 60° C. 1 M NaAcetate and 3N H2SO4 is added to each tube and vortexed. The tubes are centrifuged at 1000 rpm for 5 minutes at RT. 250 μl of the supernatant is transferred to a 2 ml eppendorf tube. To each tube is added: 938 μl of chloroform:methanol (1:1), 468 μl chloroform and 281 μl of deionized water. The tubes are vortexed and centrifuged at 1000 rpm for 5 minutes at RT. 750 μl of the upper phase is transferred into a scintillation vial 5 ml of scintillant is added and vials are counted for 1 minute for ^14C. The Beckman Scintillation counter calculates the average cpm values for triplicates. The SC150 for the compounds is defined as the concentration of drug leading to a 150% increase in production of acid soluble products of [^14C] palmitate as compared to untreated controls. This is determined by plotting the average cpm for each inhibitor concentration tested, performing linear regression and computing the best-fit line, r^2 values, and 95% confidence intervals. The average cpm values are computed by the Beckman scintillation counter (Model LS6500) for each compound concentration. Computation of linear regression, best-fit line, r^2, and 95% confidence intervals are calculated using Prism Version 3.0 (Graph Pad Software). If a compound fails to achieve this 150% threshold it is considered negative. The maximum value achieved is also reported (FAO Max).

Hela cells = conditions: cited from earlier work
Vero cells = conditions: cited from earlier work
[4] = molecular target: rat liver acyl-CoA synthetase; conditions: read-out: 50% inhibition of rat liver acyl-CoA synthetase (converted); cited from earlier work
Raji cells = conditions: cited from earlier work

In the case of `C/C=C/C/C=C/CCC(=O)[C@H]1O[C@H]1C(N)=O` [cerulenin, (2S,3R)-2,3-epoxy-4-oxo-7,10 dodecadienoyl amide], the “concentration at which viral HIV protease is inhibited” value (viral HIV protease) is given as 5 mg/mL.

For `CCCCCCCCC1(C)SC(=O)C=C1OCC(=O)Nc1ccc(F)cc1` (stereo not drawn), the “Weight Loss” value (Weight loss screen) was 60 mg/ml: 2.4% (day 1), the IC50 (HCT116 cells) was 5.6 µg/mL (≈ 14.2 µM) and the solubility [1] was 80 µg/mL (≈ 203 µM). For the same compound, the IC50 (OVCAR3 cells) was 11.1 µg/mL (≈ 28.2 µM), the IC50 [2] was 6.5 µg/mL (≈ 16.5 µM) and the Emax at 1.56 µg/mL ([3]; Homo sapiens, MCF7, at 1.56 μg/ml, read-out: FAO Max) was 106%. The “FAO SC 150” value ([3]; concentration leading to 150% of control acid soluble products, Neg = threshold not reached) was “Neg”.

In the case of `CCCC=CCC=CC=CC=NN=NO` [Triacsin C, 1-hydroxy-3-(E,E,E-2′,4′,7′-undecatrienylidine) triazene], the “growth inhibition of Hela cells” value (Hela cells) is listed as “inhibit growth”, the “growth inhibition of Vero cells” value (Vero cells) is listed as “inhibit growth” and the IC50 [4] is listed as 8.7 µM. The “growth inhibition in Raji cells” value (Raji cells) was “growth inhibition”.
